According to US20220194959A1, “CRYSTAL FORM OF EGFR INHIBITOR AND PREPARATION METHOD THEREOF” (MEDSHINE DISCOVERY INC., priority 2019, published 2022):

Legend:
Assay type in all cases: physicochemical
[1] = Water activity assay (stability of the crystal form in water with different activities); details: methanol/water, stirred two days, XRPD
Description: The stability of the crystal form in water with different activities was determined.
About 30 mg of the crystal form A of the compound of formula (II) was weighed and placed in a 1.5 mL liquid phase vial. A magnetic bar was added, and an appropriate amount of water activity agent in a system of methanol and water was pipetted into the liquid phase vial. The suspension sample was mixed well and then placed on a magnetic stirrer (25° C., 700 rpm). After stirring for two days, the wet sample was determined by XRPD.

[2] = Stability assay under illumination, high humidity, high temperature and acceleration (related substances and crystal form); design: Total impurity: unit not given here; details: for Change of crystal form: 17 days
Description: The stability of crystal form of the crystal form A and the crystal form C of the compound of formula (II) under the conditions of illumination, high humidity (92.5% RH), high temperature (60° C.) and acceleration (40° C./75% RH) was investigated.
Illumination test chamber, model: SHH-100GD-2, conditions: 5000±500 lux (visible light) and 90 mw/cm^2 (ultraviolet).
Electrothermal blowing dry box, model: GZX-9140MBE, conditions: 60° C.
Constant temperature and humidity chamber, model: LDS-800Y, conditions: 40° C./75% RH.
Constant temperature and humidity chamber, model: SHH-250SD, conditions: 25° C., 92.5% RH.
An appropriate amount of the crystal form A of the compound of formula (II) was weighed and placed in a dry and clean weighing bottle. The sample was spread into a thin layer, and fully exposed to assay conditions (60° C., 92.5% RH, illumination) and acceleration conditions (40° C./75% RH). After 17 days, the compound was taken out and determined for related substances and crystal form. […]

[3] = Hygroscopicity study by dynamic vapor sorption (DVS)
Description: 1.4. Dynamic Vapor Sorption, DVS Method
Instrument model: SMS DVS Advantage dynamic vapor sorption apparatus
Test conditions: The sample (10 to 15 mg) is weighed and placed in a DVS sample pan for testing.
The detailed DVS parameters are as follows:
Equilibration: dm/dt=0.01%/min (The shortest time: 10 min, and the longest time: 180 min)
Drying: Dried for 120 min at 0% RH
RH (%) test gradient: 10%
Range of RH (%) test gradient: 0%-90%-0%
The classification of hygroscopicity evaluation is as follows:
10-15 mg of the crystal form A and the crystal form C of the compound of formula (II) were weighed and placed into a DVS sample pan for testing.

[4] = Solubility assay in media with different pHs; details: for Solubility (24 hours) / Solubility (2 hours): 37° C.; for Final pH: filtrate of saturated solution
Description: (§1) 9 parts of 4 mg of the crystal form A of the compound of formula (II) were weighed and added to a 1.5 mL sample bottle, respectively, and then 1 mL of different media (0.1 mol/L HCl, 0.01 mol/L HCl, pH3.8 buffer solution, pH4.5 buffer solution, pH5.5 buffer solution, pH6.0 buffer solution, pH6.8 buffer solution, pH7.4 buffer solution, and water) were added, respectively. Based on the dissolution situation, the raw material compound was continuously added until a saturated solution was formed. The magnetic bar was added to the above suspension, and the suspension was placed on a magnetic stirrer (37° C., protected from light) and stirred. […] The upper layer of the sample was filtered with a filter membrane, and the pH value of the filtrate was determined. The saturated solubility of the compound was determined by HPLC.
as §1, with “C” for “A”

## COc1cc2ncnc(Nc3cccc(Cl)c3F)c2cc1N1CC2(CN(C)C2)OC1=O.Cc1ccc(S(=O)(=O)O)cc1 [crystal form A of the compound of formula (II)]
[1]; water activity 0.1 and 0.3, 25° C.
  Crystal form change in water activity assay: not changed
[1]; water activity greater than 0.3, 25° C.
  Crystal form change in water activity assay: changed to the crystal form C
[2]
  Stability compared with the crystal form D of the maleate of the compound of formula (I): better
[2]; 40° C. - 75% RH - 17 days
  Related substance at relative retention time 0.24: 0.03
  Related substance at relative retention time 0.67: 0.16
  Related substance at relative retention time 0.88: 0.04
  Related substance at relative retention time 0.92: 0.04
  Related substance at relative retention time 1.24: 0.15
  Related substance at relative retention time 1.30: 0.18
  Related substance at relative retention time 1.56: 0.04
  Related substance at relative retention time 1.76: 0.04
  Total impurity: 0.66
[2]; 60° C. - 17 days
  Related substance at relative retention time 0.24: 0.03
  Related substance at relative retention time 0.67: 0.91
  Related substance at relative retention time 0.88: 0.05
  Related substance at relative retention time 0.92: 0.03
  Related substance at relative retention time 1.24: 0.15
  Related substance at relative retention time 1.30: 0.16
  Related substance at relative retention time 1.56: 0.04
  Related substance at relative retention time 1.76: 0.07
  Total impurity: 1.44
[2]; 92.5% RH - 17 days
  Related substance at relative retention time 0.24: 0.03
  Related substance at relative retention time 0.67: 0.05
  Related substance at relative retention time 0.88: 0.04
  Related substance at relative retention time 0.92: 0.04
  Related substance at relative retention time 1.24: 0.14
  Related substance at relative retention time 1.30: 0.18
  Related substance at relative retention time 1.56: 0.04
  Related substance at relative retention time 1.76: 0.02
  Total impurity: 0.54
[2]; Illumination - 17 days
  Related substance at relative retention time 0.24: 0.03
  Related substance at relative retention time 0.67: 0.07
  Related substance at relative retention time 0.88: 0.04
  Related substance at relative retention time 0.92: 0.05
  Related substance at relative retention time 1.24: 0.13
  Related substance at relative retention time 1.30: 0.17
  Related substance at relative retention time 1.56: 0.04
  Total impurity: 0.46
[2]; Initial sample
  Related substance at relative retention time 0.24: 0.03
  Related substance at relative retention time 0.67: 0.05
  Related substance at relative retention time 0.88: 0.03
  Related substance at relative retention time 1.24: 0.15
  Related substance at relative retention time 1.30: 0.18
  Related substance at relative retention time 1.56: 0.04
  Total impurity: 0.53
[2]; acceleration (40° C./75% RH)
  Change of crystal form: not changed
[2]; high humidity (92.5% RH)
  Change of crystal form: changed
[2]; high temperature (60° C.)
  Change of crystal form: not changed
[2]; illumination
  Change of crystal form: not changed
[2]; illumination, high temperature, high humidity, acceleration
  Formation of degradation impurity (conclusion): produces a degradation impurity only under the condition of high temperature
[3]; 25° C. and 80% RH
  ΔW (weight increase by moisture absorption): 1.329%
[3]; 25° C., 80% RH
  Classification of hygroscopicity: slightly hygroscopic
[4]; 0.01 mol/L HCl
  Solubility (24 hours): 7941 µg/mL
  Final pH: 3.59
[4]; buffer solutions below pH 6.8 and purified water
  Solubility (conclusion): high solubility
[4]; pH 3.8 buffer solution
  Final pH: 3.988
  Solubility (2 hours): 3749 µg/mL
  Solubility (24 hours): 3645 µg/mL
[4]; pH 4.5 buffer solution
  Final pH: 4.531
  Solubility (2 hours): 3824 µg/mL
  Solubility (24 hours): 3141 µg/mL
[4]; pH 5.5 buffer solution
  Final pH: 5.499
  Solubility (2 hours): 3571 µg/mL
[4]; pH 6.0 buffer solution
  Final pH: 5.900
  Solubility (2 hours): 3785 µg/mL
  Solubility (24 hours): 3638 µg/mL
[4]; pH 6.8 buffer solution
  Final pH: 6.588
[4]; pH 7.4 buffer solution
  Final pH: 7.096
[4]; water
  Final pH: 5.296
  Solubility (2 hours): 2720 µg/mL
[4]; merged cell: 0.1 mol/L HCl, 0.01 mol/L HCl, pH 3.8, 4.5, 5.5, 6.0 buffer solutions and water
  Evaluation of dissolution property: High solubility
[4]; merged cell: pH 6.8 and pH 7.4 buffer solutions
  Evaluation of dissolution property: Low solubility
